According to patent publication US20240293566A1, “ANTI-EGFRvIII ANTIBODY DRUG CONJUGATES AND USES THEREOF” (Regeneron Pharmaceuticals, Inc., priority 2021, published 2024):

Experiments:
[1] = test system: U251 MG parental cells; assay: In vitro cytotoxicity (nuclear counts after 6-day treatment), mono-culture; type: cell-based
Description: (§1) To determine the relative cell-killing potency of anti-EGFRvIII antibody drug conjugates of the invention, cell-killing assays were run on a cell line expressing human EGFRvIII. To develop the cell line, Lipofectamine LTX with Plus Reagent was used to generate U251 cells (Sigma, #9063001) expressing human EGFRvIII (hEGFRvIII; amino acids 1 through 380 of accession number NP_005219.2 with a deletion of amino acids 30 through 297 and creation of a junctional glycine residue, i.e. SEQ ID NO: 25) here in referred to as U251 MG/hEGFRvIII. The U251 lines were maintained in complete growth media (MEM Earle's Salts+10% FBS+1% L-glutamine/penicillin/streptomycin+1% non-essential amino acids+sodium pyruvate).
(§2) To measure the in vitro cytotoxicity of anti-EGFRvIII antibody drug conjugates, nuclear counts after a 6-day treatment with the antibody drug conjugates were assessed. […] Nuclear counts were determined via Harmony image analysis software (PerkinELmer), and cell viability was expressed as a percentage of the untreated (100% viable) cells. IC50 values were determined using a four-parameter logistic equation over a 10-point dose response curve (GraphPad Prism). The maximum % kill was also determined for each test article as follows: 100-minimum percent viability.

[2] = test system: U251 MG/hEGFRvIII cells; assay: as above; type: cell-based, human
Description: as §1, §2

[3] = test system: U251MG in coculture; assay: Bystander killing assay, 1:1 coculture, far red negative population; type: cell-based; settings: 6 days
Description: Bystander killing by an ADC can take place when the cytotoxic payload is released from the target cells and is then taken up by surrounding antigen-negative (bystander) cells. […] A 1:1 coculture of 1500 cells/well of far red labeled U251 MG/hEGFRvIII cells and 1500 cells/well unlabeled U251 MG cells were incubated with either ADC or free payload M31 at a range of concentrations (100 nM to 1.5 pM) for 6 days. Cells were subsequently treated with 3 ug/mL of Hoechst 33342 nuclear stain (ThermoFisher, #H3570) while being fixed with 4% formaldehyde (ThermoFisher, #28908). Images were acquired on the Opera Phenix Microscope (PerkinELmer). All cells were identified by the Hoechst-labeled nuclei and cell counts were separated into far red positive U251 MG/hEGFRvIII cells (U251 in coculture) and far red negative parental U251 MG cell populations via Harmony image analysis software (PerkinELmer). Cell viability was determined separately for each cell population and expressed as a percentage of the untreated (100% viable) cells.

[4] = test system: U251MG/hEGFRvIII in coculture; assay: Bystander killing assay, 1:1 coculture, far red positive population; type: cell-based, human; settings: 6 days
Description: Bystander killing by an ADC can take place when the cytotoxic payload is released from the target cells and is then taken up by surrounding antigen-negative (bystander) cells. […] Cells were subsequently treated with 3 ug/mL of Hoechst 33342 nuclear stain (ThermoFisher, #H3570) while being fixed with 4% formaldehyde (ThermoFisher, #28908). Images were acquired on the Opera Phenix Microscope (PerkinELmer). All cells were identified by the Hoechst-labeled nuclei and cell counts were separated into far red positive U251 MG/hEGFRvIII cells (U251 in coculture) and far red negative parental U251 MG cell populations via Harmony image analysis software (PerkinELmer). Cell viability was determined separately for each cell population and expressed as a percentage of the untreated (100% viable) cells.

[5] = test system: U251/EGFRvIII xenografts; assay: Subcutaneous U251/EGFRvIII xenograft, comparison with COMP-MMAF (Example 11); type: in vivo, SCID mice; settings: for Tumor growth (mm^3) from start of treatment (mean ± SD) / Tumor volume (mm^3) at termination of vehicle group (mean ± SD): Day 36 post-treatment
Description: For the initial xenograft study, U251/EGFRvIII tumors were established by the subcutaneous implantation of 10×10^6 cells mixed 1:1 with Matrigel on the right flank of male SCID mice. Tumors were grown to ˜175 mm^3 before treatment initiation, approximately 30 days post-implantation. Mice were randomized into groups of 8 and treated with a single dose of test or control ADCs. Tumor growth was monitored for 71 days post-treatment.

[6] = test system: Orthotopically placed GBM59 GBM PDX tumors; assay: Intracranial orthotopic GBM59 PDX survival, comparison with COMP-MMAF (Example 11); type: in vivo, mice
Description: Intracranial injection was performed at 1 mm anterior and 2 mm lateral to the bregma at a depth of 3 mm. All orthotopic GBM PDX studies were conducted by Translational Drug Development Inc. Orthotopic GBM59 PDX were allowed to establish for 25 days before mice were randomized into groups of 8 and treated with a single dose of test or control ADCs. Mice were monitored for 94 days for signs of peri-morbidity and euthanized prior to reaching a moribund state.

COc1cc2c(cc1OCCCCCOc1cc3c(cc1OC)C(=O)N1C=C(C)C[C@H]1C=N3)N=C[C@@H]1CC(C)=CN1C2=O [SG3199]
IC50 ([1]; Homo sapiens, U-251, 144 h): 2 pM
% Kill (maximum) ([1]; U251MG mono-culture, 6 days): 93%
IC50 ([2]; Homo sapiens, U-251, 144 h): 10 pM
% Kill (maximum) ([2]; U251MG/hEGFRvIII mono-culture, 6 days): 92%
% Kill (maximum) [3]: 94%
IC50 ([3]; Homo sapiens, U-251, 144 h): 7 pM
% Kill (maximum) [4]: 91%
IC50 ([4]; Homo sapiens, U-251, 144 h): 10 pM

COMP-MMAF: ABT-414 (hu806) antibody conjugated to monomethyl auristatin F (MMAF) via non-cleavable linker
Anti-tumor activity ([5]; COMP-MMAF 2.5 mg/kg): Activity against tumors was seen
Anti-tumor activity ([5]; COMP-MMAF 5 mg/kg, 71 days post-dosing): sustained activity similar to that resulting from treatment with REGN3124-tesirine
Tumor growth (mm^3) from start of treatment (mean ± SD) ([5]; ADC dose 1 mg/kg): 423 ± 324 mm^3
Tumor volume (mm^3) at termination of vehicle group (mean ± SD) ([5]; ADC dose 1 mg/kg): 595 ± 325 mm^3
Tumor growth (mm^3) from start of treatment (mean ± SD) ([5]; ADC dose 2.5 mg/kg): 6 ± 36 mm^3
Tumor volume (mm^3) at termination of vehicle group (mean ± SD) ([5]; ADC dose 2.5 mg/kg): 183 ± 51 mm^3
Tumor growth (mm^3) from start of treatment (mean ± SD) ([5]; ADC dose 5 mg/kg): −36 ± 22 mm^3
Tumor volume (mm^3) at termination of vehicle group (mean ± SD) ([5]; ADC dose 5 mg/kg): 136 ± 16 mm^3
Anti-tumor activity ([5]; REGN3124-tesirine 0.53 mg/kg ADC (7 ug/kg PBD payload), COMP-MMAF 1 mg/kg, isotype controls all dose levels): Sustained regression was not observed
N = 8 survival at Day 94 ([6]; ADC dose 1 (mg/kg)): 0/8
median survival ([6]; ADC dose 1 (mg/kg)): 13.5 days
N = 8 survival at Day 94 ([6]; ADC dose 5 (mg/kg), MMAF ADCs): 0/8
median survival ([6]; ADC dose 5 (mg/kg), MMAF ADCs): 23.5 days
Effect on survival relative to the MMAF control ([6]; COMP-MMAF 5 mg/kg): some increase in survival
Time within which all mice succumbed to tumor burden ([6]; COMP-MMAF 5 mg/kg): ≤ 35 days of treatment
Effect on survival ([6]; REGN3124-tesirine DAR 1.9, 7 ug/kg payload, COMP-MMAF 1 mg/kg, controls): did not induce a significant increase in survival
